Results from patent US20070154581A1, “Composition and method for enhancing or stimulating the immune system” (priority 2005, published 2007).
Converted amounts (≈) assume the structure as drawn. Read-outs that look alike come from different tables or passages of the source.

Experiments:
[1] = system: human immunodeficiency virus-infected cell system; conditions: cited from earlier work
[2] = system: phosphatidylcholine biosynthesis; conditions: cited from earlier work
Trypanosoma cruzi = conditions: cited from earlier work
[3] = system: mucoid strains of Pseudomonas aeruginosa, Streptococcus β hemnolyticus and Enterococcus faecium; conditions: cited from earlier work
[4] = Candida neoformans; cited from earlier work
Candida albicans = conditions: cited from earlier work
Proteus mirabilis = conditions: cited from earlier work
Streptococcus progenies = conditions: Sensitive; cited from earlier work
[5] = target: NADP-dependent alcohol dehydrogenase (Thermoanaerobacter brockii, UniProt P14941); experiment: Inhibition of thiol enzymes by allicin; type: biochemical, Thermoanaerobium brockii; conditions: could be reactivated with thiol-containing compounds
thioredoxin reductases = experiment: Inhibition of thiol-containing enzymes of the amoeba parasite; type: biochemical
[6] = system: tissue-cultured mammalian cells
Escherichia coli = conditions: cited from earlier work
[7] = target: T1, NAD-dependent alcohol dehydrogenase (Equus caballus, UniProt P00327); experiment: Inhibition of thiol enzymes by allicin; type: biochemical, horse; conditions: could be reactivated with thiol-containing compounds
T1 construct: the NAD-dependent alcohol dehydrogenase from horse liver; from tissue; host or cells: horse liver

Candida parapsilosis = conditions: cited from earlier work
Entainoeba histolytica = conditions: cited from earlier work
alcohol dehydrogenases = experiment: Inhibition of thiol-containing enzymes of the amoeba parasite; type: biochemical
Torulopsis glabrata = conditions: cited from earlier work
Salmonella typhimurium = conditions: 0.2 to 0.5 mM; cited from earlier work
Candida krusei = conditions: cited from earlier work
Leishmania major = conditions: 30 μg/mL; cited from earlier work
Leptornonas colosoma = conditions: 30 μg/mL; cited from earlier work
Klebsiella pneumoniae = conditions: Clinical isolate; cited from earlier work
[8] = system: Streptococcus β hemolyticus; conditions: Clinical MDR strain; cited from earlier work
Acinetobacter baumanii = conditions: Clinical isolate; cited from earlier work
cysteine proteinases = experiment: Inhibition of thiol-containing enzymes of the amoeba parasite; type: biochemical
[9] = system: trophozoites of E. histolytica; conditions: 5 μg/mL, in vitro; cited from earlier work
Giardia lamblia = conditions: 30 μg/mL; cited from earlier work
[10] = system: methicillin resistant Staphylococcus aureus, multidrug-resistant enterotoxicogenic Escherichia coli, Enterococcus, Shigella dysenteriae, S. flexneni and S. …; conditions: strains resistant to antibiotics; cited from earlier work
Crithidia fasciculata = conditions: 30 μg/mL; cited from earlier work
Candida = conditions: pure allicin; cited from earlier work
Pseudomonas aeruginosa = conditions: cited from earlier work
thiol-protease papain = thiol-protease papain (Carica papaya, UniProt P00784); experiment: Inhibition of thiol enzymes by allicin; type: biochemical; conditions: could be reactivated with thiol-containing compounds
[11] = system: tissue-cultured mammalian cells; conditions: cited from earlier work
[12] = target: acetyl-CoA-forming system, consisting of acetate kinase and phosphotransacetyl-CoA synthetase; conditions: cited from earlier work
[13] = system: Acetate incorporation into fatty acids of isolated plastids; conditions: read-out: 50% inhibitory concentration (I 50 value); cited from earlier work
Candida tropicalis = conditions: cited from earlier work
Staphylococcus aureus = conditions: cited from earlier work
S. fiexneri Y = conditions: rabbit; cited from earlier work
Enterococcus faecium = conditions: Clinical MDR strain; cited from earlier work
[14] = alliin in itself; cited from earlier work

Sequence of NADP-dependent alcohol dehydrogenase (P14941 whole entry): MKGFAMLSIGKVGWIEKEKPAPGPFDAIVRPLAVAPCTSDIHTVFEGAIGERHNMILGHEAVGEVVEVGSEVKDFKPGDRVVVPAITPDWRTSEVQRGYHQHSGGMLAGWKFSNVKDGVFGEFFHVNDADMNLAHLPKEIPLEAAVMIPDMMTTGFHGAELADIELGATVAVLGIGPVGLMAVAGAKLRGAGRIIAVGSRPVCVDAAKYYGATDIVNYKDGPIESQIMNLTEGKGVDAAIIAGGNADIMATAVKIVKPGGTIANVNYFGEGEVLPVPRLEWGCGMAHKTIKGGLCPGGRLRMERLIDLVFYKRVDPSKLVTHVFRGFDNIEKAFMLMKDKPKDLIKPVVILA
T1 sequence (P00327 2-375 limits assumed): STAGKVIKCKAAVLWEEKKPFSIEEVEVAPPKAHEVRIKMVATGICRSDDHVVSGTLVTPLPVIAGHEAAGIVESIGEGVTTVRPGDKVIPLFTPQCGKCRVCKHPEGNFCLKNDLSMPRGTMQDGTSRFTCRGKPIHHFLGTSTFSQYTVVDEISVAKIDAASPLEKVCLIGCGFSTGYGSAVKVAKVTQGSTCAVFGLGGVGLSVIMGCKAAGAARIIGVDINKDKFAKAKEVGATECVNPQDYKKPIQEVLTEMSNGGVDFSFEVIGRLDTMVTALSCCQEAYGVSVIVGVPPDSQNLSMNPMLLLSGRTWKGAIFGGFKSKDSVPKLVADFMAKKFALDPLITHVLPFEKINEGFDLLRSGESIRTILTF
Sequence of thiol-protease papain (P00784 134-345): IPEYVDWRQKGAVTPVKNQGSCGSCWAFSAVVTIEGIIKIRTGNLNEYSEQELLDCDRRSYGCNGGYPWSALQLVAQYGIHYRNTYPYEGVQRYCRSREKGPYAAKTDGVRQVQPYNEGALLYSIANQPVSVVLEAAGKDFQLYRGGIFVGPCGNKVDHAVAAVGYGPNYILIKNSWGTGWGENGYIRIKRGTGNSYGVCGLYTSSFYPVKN

C=CCSSC=CC[S+]([O-])CC=C (mixture of isomers) [ajoene]
integrin-dependent processes [1]: block the integrin-dependent processes | phosphatidylcholine biosynthesis [2]: inhibit phosphatidylcholine biosynthesis | proliferation of Trypanosoma cruzi (Trypanosoma cruzi): inhibit the proliferation

C=CCS[S+]([O-])CC=C (centres unmarked) [allicin]
sensitivity to allicin [3]: resistant | Allicin concentration MIC [4]: 0.3 µg/mL | Allicin concentration MIC (Candida albicans; Clinical isolates): 0.8 µg/mL | Allicin concentration MIC (Candida albicans): 0.3 µg/mL | Allicin Concentration (LD50 ug/ml) (Proteus mirabilis; Prloteus marbles, Sensitive): 15 µg/mL | Allicin Concentration (LD50 ug/ml) (Proteus mirabilis; Proteus mirabilis, Clinical MDR strain): >30 µg/mL | Allicin Concentration (LD50 ug/ml) (Streptococcus progenies): 3 µg/mL | inhibition of NADP-dependent alcohol dehydrogenase from Thermoanaerobium brockii [5]: irreversibly inhibited | concentration at which inhibition was observed (thioredoxin reductases): > 10 µg/mL | concentration toxic to tissue-cultured mammalian cells [6]: > 100 µg/mL | Allicin Concentration (LD50 ug/ml) (Escherichia coli; Multidrug resistant MDR): 15 µg/mL | Allicin Concentration (LD50 ug/ml) (Escherichia coli; Sensitive to antibiotics): 15 µg/mL | inhibition of NAD-dependent alcohol dehydrogenase from horse liver [7]: irreversibly inhibited | Allicin concentration MIC (Candida parapsilosis): 0.15 µg/mL | concentration that totally inhibits the growth of amoeba cultures (Entainoeba histolytica): 30 µg/mL | concentration at which inhibition was observed (alcohol dehydrogenases): > 10 µg/mL | Allicin concentration MIC (Torulopsis glabrata; Clinical isolates): 1.9 µg/mL | Allicin concentration MIC (Torulopsis glabrata): 0.3 µg/mL | effect on DNA and protein synthesis (Salmonella typhimurium): partially inhibit | effect on RNA synthesis (Salmonella typhimurium): immediate | Allicin concentration MIC (Candida krusei): 0.3 µg/mL | growth inhibition (Leishmania major): very efficiently inhibited | growth inhibition (Leptornonas colosoma): very efficiently inhibited | Allicin Concentration (LD50 ug/ml) (Klebsiella pneumoniae): 8 µg/mL | Allicin Concentration (LD50 ug/ml) [8]: >100 µg/mL | Allicin Concentration (LD50 ug/ml) (Acinetobacter baumanii): 15 µg/mL | concentration at which inhibition was observed (cysteine proteinases): > 10 µg/mL | inhibition of virulence of trophozoites [9]: 90% | growth inhibition (Giardia lamblia): very efficiently inhibited | sensitivity to allicin [10]: sensitive | growth inhibition (Crithidia fasciculata): very efficiently inhibited | minimum inhibitory concentration (Candida): 7 µg/mL (≈ 43.1 µM) | Allicin Concentration (LD50 ug/ml) (Pseudomonas aeruginosa; MDR mucoid strain): >100 µg/mL | Allicin Concentration (LD50 ug/ml) (Pseudomonas aeruginosa; Sensitive to cefprozil): 15 µg/mL | inhibition of papain (thiol-protease papain): irreversibly inhibited | concentration at which some toxicity towards tissue-cultured mammalian cells was observed [11]: above 100 μM | kind of inhibition [12]: noncovalent and reversible | IC50 [13]: < 10 mM | Allicin concentration MIC (Candida tropicalis): 0.3 µg/mL | Allicin Concentration (LD50 ug/ml) (Staphylococcus aureus; Methicillin resistant): 12 µg/mL | Allicin Concentration (LD50 ug/ml) (Staphylococcus aureus; Sensitive): 12 µg/mL | antibacterial activity in vivo (S. fiexneri Y): in vivo antibacterial activity | Allicin Concentration (LD50 ug/ml) (Enterococcus faecium): >100 µg/mL

(+)-S-allyl-L-cysteine-sulfoxide [alliin]
antimicrobial activity [14]: no antimicrobial activity
